PubChem BioAssay AID179 (DTP/NCI, 2004)
Active and inactive are the calls of the source.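 How the source made its calls: active means compounds giving half or more protection of infected cells from virus-caused growth loss, again on retest; inactive means the rest.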

System: CEM cells HIV-1 protection, formazan growth assay
Assay: NCI AIDS Antiviral Assay
Details: for IC50: measured here: growth of uninfected CEM cells
Outline: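 Human CEM cells, uninfected and HIV-1-infected, received five drug concentrations, and growth was read by soluble formazan assay. Compounds giving at least 50% protection were retested; reproducible 100% protection defined confirmed active.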

In the case of CN1CCC2(CC1)N=C1CCN(C)CC1S2 (centres undefined), the EC50 is reported as > 457 µM and the IC50 is reported as 87.1 µM.

For COC(=O)CNC(=O)/C=C/[C@H](O[Si](C)(C)C(C)(C)C)[C@H](/C=C/C(=O)NCC(=O)OC)O[Si](C)(C)C(C)(C)C, the EC50 was > 25.1 µM and the IC50 was > 25.1 µM.

CC(C)(C)CC(C)(C)c1cc2c(O)c(c1)Cc1cc(C(C)(C)CC(C)(C)C)cc(c1O)Cc1cc(C(C)(C)CC(C)(C)C)cc(c1O)Cc1cc(C(C)(C)CC(C)(C)C)cc(c1O)Cc1cc(C(C)(C)CC(C)(C)C)cc(c1O)C2 was tested, and the EC50 was > 8.71 µM and the IC50 was > 8.71 µM.

For Cc1cc(=O)oc2c3c4c(cc12)CCCN4CCC3, the EC50 was > 14.8 µM and the IC50 was > 14.8 µM.

O=C1c2ccccc2C(=O)C2C1C1C(=O)c3ccccc3C(=O)C21 (centres undefined) was tested, and the outcome was “inactive”.

With S=C1SC2(CCCCCC2)NC2=C1CCCCC2 the EC50 was > 25.7 µM and the IC50 was 15.8 µM.

With O=C(O)c1ccccc1C1c2ccc(Cl)cc2Oc2cc(Cl)ccc21 the EC50 was > 10 µM and the IC50 was > 10 µM.

With CSc1nc2nccnc2c(=O)[nH]1 the EC50 was > 1290 µM and the IC50 was > 1290 µM.

In the case of Cc1ccc(NC(=S)N/N=C(/c2ccccc2)c2ccccn2)cc1, the EC50 is reported as > 0.2 µM and the IC50 is reported as 0.105 µM.

For CSc1sc2ccccc2[s+]1, the outcome was “inactive”.

In the case of O=S1CSCS1 (centres undefined), the EC50 is reported as > 200 µM and the IC50 is reported as > 200 µM.

For O=[N+]([O-])O.[Ga], the EC50 was > 100 µM and the IC50 was > 100 µM.

CC(=O)Oc1c(-c2ccccc2)[nH]c2cc([N+](=O)[O-])c(/C(Cl)=C/c3ccccc3)cc12 was tested, and the EC50 was > 6.31 µM and the IC50 was > 6.31 µM.

c1ccc2[nH]c(CSc3nc4ccccc4[nH]3)nc2c1 was tested, and the EC50 was > 200 µM and the IC50 was > 200 µM.

In the case of CCOP(=S)(OCC)OC(=O)C(C)SSC (centres undefined) (tested in a mixture with another compound), the EC50 is reported as > 200 µM and the IC50 is reported as 95.5 µM.

For COc1ccc(/C=C/C(=O)c2c(-c3ccccc3)nn(C)c(=O)c2N2CCCC2)cc1, the EC50 was > 67.6 µM and the IC50 was > 67.6 µM.

In the case of COCCOCCOCCOc1cccc2c1C(=O)c1c(OCCOCCOCCOC)cccc1C2=O, the outcome is reported as “inactive”.

O=C(CCN1CCCC1)c1ccc(Oc2ccc(F)cc2)cc1 was tested, and the EC50 was > 200 µM and the IC50 was 110 µM.

[N-]=[N+]=NC1(c2ccccc2)C(=O)c2cccc3c2N(CCC3)C1=O (centres undefined) was tested, and the EC50 was > 200 µM and the IC50 was 141 µM.

In the case of CSCCC(NC(=O)Cc1ccc(C(=O)c2ccccc2)cc1)C(=O)N1CCN(CCCCN2c3ccccc3Sc3cc(N=[N+]=[N-])ccc32)CC1 (centres undefined), the EC50 is reported as > 200 µM and the IC50 is reported as 33.1 µM.

With O=C(O)c1cc(N=Nc2ccc(CCc3ccc(N=Nc4cc(C(=O)O)c(O)c5ccccc45)cc3S(=O)(=O)O)c(S(=O)(=O)O)c2)c2ccccc2c1O the EC50 was > 12.6 µM and the IC50 was > 12.6 µM.

With CC(=O)Nc1ccc(C(=O)NN2C(=O)CSC2c2ccc(O)cc2)cc1 (centres undefined) the EC50 was > 36.3 µM and the IC50 was > 36.3 µM.

In the case of Cc1ccc(C(=O)/C(C#N)=C/Nc2c(C)n(C)n(-c3ccccc3)c2=O)cc1, the EC50 is reported as > 200 µM and the IC50 is reported as > 200 µM.

With Cc1ccc(-c2nc(C)c(C(=O)Nc3ccc(Cl)cc3)s2)cc1 the EC50 was > 200 µM and the IC50 was > 200 µM.

In the case of Cc1cc2c(C(C)C)c(O)c(O)c(C=Nc3cccc(O)c3)c2c(O)c1-c1c(C)cc2c(C(C)C)c(O)c(O)c(C=Nc3cccc(O)c3)c2c1O, the outcome is reported as “inactive” and the IC50 is reported as 8.13 µM.

N#CNC1=NCOCN1 was tested, and the EC50 was > 708 µM and the IC50 was > 708 µM.

With CCCCCOCCCCCCCC(=O)OCC1OC(n2cc(C)c(=O)[nH]c2=O)CC1N=[N+]=[N-] (centres undefined) the outcome was “active”.

For COc1ccc(-c2nc3c(nc2-c2ccc(OC)cc2)C(N)=NS(=O)(=O)N3)cc1, the EC50 was > 166 µM and the IC50 was > 166 µM.

In the case of Cc1cc(S(=O)(=O)Nc2n[nH]c(-c3ccccn3)n2)c(S)cc1Cl, the EC50 is reported as > 200 µM and the IC50 is reported as 4.17 µM.

For O=C1NC2NC(=O)NC2N1 (centres undefined), the EC50 was > 479 µM and the IC50 was > 479 µM.

With CC(C)OP(=O)(Cc1cc(C(C)(C)C)c(O)c(C(C)(C)C)c1)OC(C)C the EC50 was > 67.6 µM and the IC50 was > 67.6 µM.

CC(=O)Nc1ccc(S(=O)c2ccc(NC(C)=O)cc2)cc1 was tested, and the EC50 was > 81.3 µM and the IC50 was > 81.3 µM.

With COc1cc2c(c(OC)c1OC)CCc1cnoc1-2 the EC50 was > 257 µM and the IC50 was > 100 µM.

In the case of Cc1ccccc1NC(=O)C(=O)c1c(O)c2ccc(O)cc2oc1=O, the EC50 is reported as > 741 µM and the IC50 is reported as 331 µM.
